Results taken from patent publication US11613558B2, “Peptides and pharmaceutical compositions for treating eye diseases” (Yuyu Pharma, Inc., priority 2018, dated 2023).
Square brackets hold non-standard residues; d marks the D form. Peptide text beside a SMILES is read from it. ξ: configuration not given here. Nva(4-oxo) = CC(=O)C[C@H](N)C(=O)O; Pro(4-oxo) = O=C1CN[C@H](C(=O)O)C1; Hyp = O=C(O)[C@@H]1C[C@@H](O)CN1; Ile(3ξ) = CCC(C)[C@H](N)C(=O)O; Sar = CNCC(=O)O

How the values were obtained:
[1] = tested on: rats with dry eye syndrome (extraorbital lacrimal gland excision, ELGE); experiment: Amount of tear secretion (Schirmer test, cobalt chloride paper) in ELGE rats with dry eye syndrome; assay type: in vivo, rat; settings: for Tear Volumes, Day 7 / Tear Volumes, Day 14: ELGE rats, 3 mg/ml, 5 μl/eye twice daily; for Tear Volumes, Day 7: day 7 of administration; for Tear Volumes, Day 14: day 14 of administration; for Change in amount of tear secretion as compared with the ELGE control group: 3% solution as printed, after administration for 14 days
Source text: (§1) In order to evaluate the eye protection effect on dry eye syndrome by YDE-001 to YDE-028 prepared in Example 1, a total of 320 Sprague-Dawley-type male rats (OrientBio, Seungnam, Korea) were adapted for 7 days. Thereafter, dry eye syndrome was induced in 264 test rats through extraorbital lacrimal gland excision (hereinafter, ELGE). 8 test rats without the eye abnormality were subjected to a sham operation as a control group.
(§2) The rat was systemically anesthetized by inhaling a mixed gas of 2% to 3% of isoflurane (Hana Pharm. Co., Hwasung, Korea), 70% of N2O, and 28.6% of O2 using a rodent anesthesia machine (Surgivet, Waukesha, Wis., USA) and a ventilator (Model 687, Harvard Apparatus, Cambridge, UK). Thereafter, the extraorbital lacrimal gland located in the subdermal area above the masseter muscle and […] was excised through a transverse incision in a size of 10 mm on the anterior part of the left ear tragus. The skin was sutured by a general method. […] After 6 days from the ELGE operation, it was checked through the Schirmer test by measuring the amount of tear secretion whether dry eye syndrome had been induced. Meanwhile, each rat of the control group with the sham operation was checked for the presence and location of the extraorbital lacrimal gland through a skin incision, and the skin was then sutured without the excision thereof (FIG. 4).
(§3) In addition, in order to evaluate the eye protection effect on dry eye syndrome by YDE-029 to YDE-043 prepared in Example 1, a total of 200 Sprague-Dawley-type male rats (OrientBio, Seungnam, Korea) were adapted for 7 days. Dry eye syndrome was induced in 165 test rats through the ELGE. 8 test rats without the eye abnormality were subjected to the sham operation as a control group. The ELGE was carried out as described above.
(§4) For YDE-001 to YDE-028, YY-102 and the 28 YDE-series were each dissolved in physiological saline at a concentration of 3 mg/ml and administered at a dose of 5 μl/eye at 9:30 am and 3:30 pm daily for 14 days after 7 days from the ELGE operation for a total of 28 times. The DS solution was dissolved in physiological saline at a concentration of 30 mg/ml and administered at a dose of […] twice a day for 14 days after 7 days from the ELGE operation for a total of 28 times. For the sham control and the ELGE control groups, the same stimulation as the administration was applied. In order to prevent excessive eye dryness, the same volume of physiological saline was applied in the same manner in place of the test substances.
as §4, with “Further, for YDE-029 to YDE-043,” for “For YDE-001 to YDE-028,”, “YDE-029 to YDE-043, YY-102 and” for “YDE-001 to YDE-028, YY-102 and”, “and the 15 YDE-series were” for “and the 28 YDE-series were”, “the test substances (FIG. 7).” for “the test substances.”
After 6 days from the ELGE surgery, the changes in the amount of tear secretion were measured at day 7 and day 14 after the administration of YDE-001 to YDE-043. The amount of tear secretion was measured by the […] travel distance of tears absorbed by cobalt chloride paper in a size of 1×15 mm (Toyo Roshi Kaisha, Japan).
The cobalt chloride paper was placed in the lateral canthus of a rat for 60 seconds to absorb tears (FIG. 9). The length of the area absorbed from the corner of the cobalt chloride paper was measured with an electronic digital caliper (Mytutoyo, Tokyo, Japan) (FIG. 8).

[2] = tested on: cornea of rats with dry eye syndrome (ELGE); experiment: Corneal permeability of fluorescent dye (corneal damage) in ELGE rats with dry eye syndrome; assay type: in vivo, rat; settings: 5 μl/eye twice daily, day 14
Source text: as §1, §2, §3, §4
as §4, with “Further, for YDE-029 to YDE-043,” for “For YDE-001 to YDE-028,”, “YDE-029 to YDE-043, YY-102 and” for “YDE-001 to YDE-028, YY-102 and”, “and the 15 YDE-series were” for “and the 28 YDE-series were”, “the test substances (FIG. 7).” for “the test substances.”
After YDE-001 to YDE-028 were each administered to the eyes […], the changes in the corneal permeability were checked.
In order to measure the corneal permeability, Zolethyl 50™ (Virbac Lab., Carros, France), an animal anesthetic, was intraperitoneally injected at a dose of 25 mg/kg. Thereafter, saline containing a 1% (v/v) fluorescent solution (fluorescein sodium salt, Tokyo Kasei Kogyo Co., Tokyo, Japan) was applied to the eyes at a dose of 5 μl/eye. The eyes thus treated were closed and fixed with a tape. After 1 hour, the remaining fluorescent solution was removed using a cotton swab (FIG. 12). […]

[3] = Stability in aqueous solution under long-term storage conditions (related substances); assay type: physicochemical; settings: 25° C., 75% RH
Experimental: In order to confirm the stability of each test substance in an aqueous solution, […] of each sample was dissolved in 1 ml of water to a concentration of 1 mg/ml, which was then charged to a glass vial, plugged with a rubber cap, sealed with an aluminum cap, and stored under long-term storage conditions (25° C., 75% RH). The stability of the test substance was evaluated by measuring the amount of related substances at the time of one week, two weeks, four weeks, eight weeks, and twelve weeks under the long-term storage conditions.

[4] = Table 4, study of YDE-001 to YDE-028
[5] = Table 6, study of YDE-001 to YDE-028, 3 mg/ml
[6] = Table 5, study of YDE-029 to YDE-043
[7] = Table 7, study of YDE-029 to YDE-043, 3 mg/ml

SMILES	Tear Volumes, Day 7 [1, 4]	Tear Volumes, Day 14 [1, 4]	Permeability of fluorescent dye [2, 5]	Amount of related substances (after 12 weeks) [3]	Tear Volumes, Day 7 [1, 6]	Tear Volumes, Day 14 [1, 6]	Change in amount of tear secretion as compared with the ELGE control group ([1]; study of YDE-029 to YDE-043)	Permeability of fluorescent dye [2, 7]	Change in amount of tear secretion as compared with the ELGE control group ([1]; study of YDE-001 to YDE-028)
CC(C)C[C@H](NC(=O)[C@H](C)NC(=O)[C@H](CC(=O)O)NC(=O)[C@H](CCC(N)=O)NC(=O)CNC(=O)[C@@H]1C[C@@H](O)CN1)C(=O)N[C@@H](C)C(=O)NCC(=O)N1CCC[C@H]1C(=O)N[C@@H](CCCCN)C(=O)O [YDE-018] (H-[Hyp]GQDALAGPK-OH)	3.75 ± 1.54 mm^3	4.99 ± 1.60 mm^3	38.19 ± 10.96%	25.39%	–	–	–	–	–
CC(C)C[C@H](NC(=O)CNC(=O)[C@H](CCC(N)=O)NC(=O)[C@H](CCC(N)=O)NC(=O)CNC(=O)[C@@H]1C[C@@H](O)CN1)C(=O)N[C@@H](C)C(=O)NCC(=O)N1CCC[C@H]1C(=O)N[C@@H](CCCCN)C(=O)O [YDE-003] (H-[Hyp]GQQGLAGPK-OH)	4.13 ± 1.76 mm^3	4.88 ± 1.57 mm^3	40.45 ± 6.46%	6.86%	–	–	–	–	–
CC(C)C[C@H](NC(=O)CNC(=O)[C@H](CC(C)C)NC(=O)[C@H](CCC(N)=O)NC(=O)CNC(=O)[C@@H]1C[C@@H](O)CN1)C(=O)N[C@@H](C)C(=O)NCC(=O)N1CCC[C@H]1C(=O)N[C@@H](CCC(N)=O)C(=O)O [YDE-032] (H-[Hyp]GQLGLAGPQ-OH)	–	–	–	6.16%	5.58 ± 0.80 mm^3	5.03 ± 0.93 mm^3	did not show any significant changes	58.90 ± 19.81%	–
CC(C)C[C@H](NC(=O)CNC(=O)[C@H](CC(C)C)NC(=O)[C@H](CCC(N)=O)NC(=O)CNC(=O)[C@@H]1CC(=O)CN1)C(=O)N[C@@H](C)C(=O)NCC(=O)N1CCC[C@H]1C(=O)N[C@@H](CCCCN)C(=O)O [YDE-035] (H-[Pro(4-oxo)]GQLGLAGPK-OH)	–	–	–	3.89%	4.96 ± 0.96 mm^3	6.25 ± 0.79 mm^3	–	27.62 ± 6.51%	–
CC(C)C[C@H](NC(=O)CNC(=O)[C@H](Cc1ccc(O)cc1)NC(=O)[C@H](CCC(N)=O)NC(=O)CNC(=O)[C@@H]1C[C@@H](O)CN1)C(=O)N[C@@H](C)C(=O)NCC(=O)N1CCC[C@H]1C(=O)N[C@@H](CCCCN)C(=O)O [YDE-013] (H-[Hyp]GQYGLAGPK-OH)	5.27 ± 1.50 mm^3	5.49 ± 1.92 mm^3	32.24 ± 7.84%	5.92%	–	–	–	–	–
CC(C)C[C@H](NC(=O)[C@H](Cc1c[nH]c2ccccc12)NC(=O)[C@H](CC(=O)O)NC(=O)[C@H](CCC(N)=O)NC(=O)CNC(=O)[C@@H]1C[C@@H](O)CN1)C(=O)N[C@@H](C)C(=O)NCC(=O)N1CCC[C@H]1C(=O)N[C@@H](CCCCN)C(=O)O [YDE-021] (H-[Hyp]GQDWLAGPK-OH)	4.08 ± 1.33 mm^3	4.90 ± 1.13 mm^3	37.00 ± 10.49%	21.33%	–	–	–	–	did not show any significant changes
CC(=O)C[C@H](NC(=O)[C@H](CCC(N)=O)NC(=O)CNC(=O)[C@@H]1C[C@@H](O)CN1)C(=O)N(C)CC(=O)N[C@@H](CC(C)C)C(=O)N[C@@H](C)C(=O)NCC(=O)N1CCC[C@H]1C(=O)N[C@@H](CCCCN)C(=O)O [YDE-025] (H-[Hyp]GQ[Nva(4-oxo)][Sar]LAGPK-OH)	3.21 ± 0.72 mm^3	4.72 ± 2.19 mm^3	47.10 ± 11.45%	5.17%	–	–	–	–	did not show any significant changes
CCC(C)[C@H](NC(=O)[C@H](CC(=O)O)NC(=O)[C@H](CCC(N)=O)NC(=O)CNC(=O)[C@@H]1C[C@@H](O)CN1)C(=O)N[C@@H](CC(C)C)C(=O)N[C@@H](C)C(=O)NCC(=O)N1CCC[C@H]1C(=O)N[C@@H](CCCCN)C(=O)O (some centres unmarked) [YDE-016] (H-[Hyp]GQD[Ile(3ξ)]LAGPK-OH)	4.59 ± 1.13 mm^3	5.98 ± 2.27 mm^3	24.57 ± 10.34%	11.33%	–	–	–	–	–
